Structures are written as SMILES.

We go through 1 compound from publication PMC3311054 (2012).

Experiment [1] has as its target bovine milk xanthine oxidoreductase (bXOR) (Bos taurus, UniProt P80457). Put plainly: steady-state kinetics, xanthine-NAD+ activity, uric acid absorbance at […] nm. Type of experiment: biochemical.
Experiment [2] has as its target T1, Rhodobacter capsulatus xanthine oxidoreductase (RcXOR) (Rhodobacter capsulatus, UniProt O54051).
T1 sequence (O54051 1-777): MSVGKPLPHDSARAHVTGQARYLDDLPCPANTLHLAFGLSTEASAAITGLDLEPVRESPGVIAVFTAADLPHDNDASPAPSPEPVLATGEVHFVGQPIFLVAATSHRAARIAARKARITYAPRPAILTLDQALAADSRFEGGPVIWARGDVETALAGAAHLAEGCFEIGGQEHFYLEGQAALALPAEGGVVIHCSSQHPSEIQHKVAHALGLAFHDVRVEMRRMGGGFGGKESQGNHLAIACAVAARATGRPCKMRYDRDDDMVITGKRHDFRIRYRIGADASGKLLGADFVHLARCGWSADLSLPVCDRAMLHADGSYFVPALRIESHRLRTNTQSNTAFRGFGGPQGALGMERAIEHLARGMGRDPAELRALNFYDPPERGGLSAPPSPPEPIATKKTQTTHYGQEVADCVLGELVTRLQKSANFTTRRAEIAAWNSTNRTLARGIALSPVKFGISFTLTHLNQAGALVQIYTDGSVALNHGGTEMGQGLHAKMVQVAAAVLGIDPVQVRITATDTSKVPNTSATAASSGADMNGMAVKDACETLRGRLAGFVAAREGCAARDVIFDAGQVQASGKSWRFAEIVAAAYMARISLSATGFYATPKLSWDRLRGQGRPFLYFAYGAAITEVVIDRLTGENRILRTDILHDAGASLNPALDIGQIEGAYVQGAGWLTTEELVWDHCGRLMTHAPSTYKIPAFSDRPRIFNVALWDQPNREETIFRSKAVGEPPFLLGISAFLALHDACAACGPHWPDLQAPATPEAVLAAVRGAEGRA
T1 sequence (O54050 1-462 partner): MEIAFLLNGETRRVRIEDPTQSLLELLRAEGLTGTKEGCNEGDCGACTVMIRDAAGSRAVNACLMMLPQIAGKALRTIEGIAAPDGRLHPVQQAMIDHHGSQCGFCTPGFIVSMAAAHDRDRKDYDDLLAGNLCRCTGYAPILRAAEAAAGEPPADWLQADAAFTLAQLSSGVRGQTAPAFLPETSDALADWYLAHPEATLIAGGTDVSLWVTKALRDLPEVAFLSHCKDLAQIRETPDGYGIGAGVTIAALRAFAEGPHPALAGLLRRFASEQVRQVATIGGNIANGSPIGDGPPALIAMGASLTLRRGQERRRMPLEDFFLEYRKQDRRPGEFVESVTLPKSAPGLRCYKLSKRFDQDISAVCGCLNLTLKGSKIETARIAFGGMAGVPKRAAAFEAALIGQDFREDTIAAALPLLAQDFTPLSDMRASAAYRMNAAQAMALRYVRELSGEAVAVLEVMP
Put plainly: steady-state kinetics, Lineweaver-Burk plots of xanthine-NAD+ activity. In kind it is biochemical.

Chain of bovine milk xanthine oxidoreductase (bXOR) (P80457 2-1332): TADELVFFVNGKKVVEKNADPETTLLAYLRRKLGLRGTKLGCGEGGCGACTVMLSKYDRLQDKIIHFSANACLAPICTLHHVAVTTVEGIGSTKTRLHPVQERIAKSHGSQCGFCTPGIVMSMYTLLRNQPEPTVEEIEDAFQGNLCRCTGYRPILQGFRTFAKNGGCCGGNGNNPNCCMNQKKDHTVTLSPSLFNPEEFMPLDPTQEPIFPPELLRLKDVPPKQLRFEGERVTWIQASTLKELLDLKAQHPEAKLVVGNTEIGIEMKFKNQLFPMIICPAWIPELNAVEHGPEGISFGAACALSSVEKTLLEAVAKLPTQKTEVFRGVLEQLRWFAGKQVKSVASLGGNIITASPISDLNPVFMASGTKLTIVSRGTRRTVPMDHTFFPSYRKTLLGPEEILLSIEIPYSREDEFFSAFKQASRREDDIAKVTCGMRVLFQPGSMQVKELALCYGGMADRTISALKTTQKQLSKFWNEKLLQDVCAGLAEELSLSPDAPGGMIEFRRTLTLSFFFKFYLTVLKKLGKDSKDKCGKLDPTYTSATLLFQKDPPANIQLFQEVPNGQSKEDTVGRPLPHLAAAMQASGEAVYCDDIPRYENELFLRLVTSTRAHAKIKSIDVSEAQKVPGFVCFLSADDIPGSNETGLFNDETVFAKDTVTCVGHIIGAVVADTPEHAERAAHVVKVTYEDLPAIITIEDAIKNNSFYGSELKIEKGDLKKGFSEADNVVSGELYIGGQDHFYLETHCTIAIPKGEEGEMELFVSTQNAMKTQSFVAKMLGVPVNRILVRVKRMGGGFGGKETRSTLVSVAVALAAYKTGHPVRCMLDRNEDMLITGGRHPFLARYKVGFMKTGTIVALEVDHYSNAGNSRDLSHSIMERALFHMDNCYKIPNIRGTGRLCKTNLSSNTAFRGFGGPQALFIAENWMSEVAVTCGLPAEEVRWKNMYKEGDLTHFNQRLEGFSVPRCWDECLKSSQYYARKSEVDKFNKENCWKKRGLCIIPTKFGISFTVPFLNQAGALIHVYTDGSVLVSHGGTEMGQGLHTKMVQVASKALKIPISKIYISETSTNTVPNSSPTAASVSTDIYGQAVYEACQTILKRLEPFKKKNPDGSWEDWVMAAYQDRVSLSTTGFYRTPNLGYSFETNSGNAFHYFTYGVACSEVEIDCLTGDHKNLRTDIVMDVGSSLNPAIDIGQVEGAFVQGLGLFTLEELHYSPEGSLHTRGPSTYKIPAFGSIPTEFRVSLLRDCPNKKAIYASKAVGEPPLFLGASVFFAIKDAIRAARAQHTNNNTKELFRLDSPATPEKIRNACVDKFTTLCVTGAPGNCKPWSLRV

The Ki is the dissociation constant of the complex between target and ligand, obtained from inhibition or displacement. Lower therefore signals a stronger hold on the target. In the case of `Cc1nc(-c2ccc(OCC(C)C)c(C#N)c2)sc1C(=O)O` [febuxostat], the “steady-state kinetics, xanthine-NAD+ activity, uric acid absorbance at 295 nm” value in experiment [1] is given as less than 100 nM. The affinity in experiment [2], expressed as Ki, was 17.5 µM.
